Laboratory results as given in PMC9533837 (Antiviral Research, 2003).
In brackets after ≈: the same amount, converted by molar mass. Where two headings read alike, the source gives them in different places.

Legend:
VAC Copenhagen [1] = test: microbe, parasite or virus in culture; format: cell-based, vaccinia virus; details: for IC50: Orthopoxvirus vaccinia, LLC-MK2, read-out: IC50 VAC LLC-MK2
VAR isolate V72-119 = test: organism not typed; format: cell-based, variola; details: Vero, read-out: IC50, VAR isolate V72-119
[2] = tested on: VAR-YAM (1946 Japan Yamada isolate of VAR major); test: organism not typed; format: cell-based, variola major; details: for IC50: LLC-MK2, read-out: IC50 VAR-YAM LLC-MK2
VAR isolate V73-225 = test: organism not typed; format: cell-based, variola; details: Vero, read-out: IC50, VAR isolate V73-225
VAR isolate 102 = test: organism not typed; format: cell-based, variola; details: Vero, read-out: IC50, VAR isolate 102
VAR isolate 7125 = test: organism not typed; format: cell-based, variola; details: Vero, read-out: IC50, VAR isolate 7125
VAR isolate Somalia = test: organism not typed; format: cell-based, variola; details: Vero, read-out: IC50, VAR isolate Somalia
[3] = tested on: MPX Zaire (V79-1-005-Scab); test: organism not typed; format: cell-based, monkeypox; details: for IC50: LLC-MK2, read-out: IC50 MPX LLC-MK2
VAR isolate Heidelberg = test: organism not typed; format: cell-based, variola; details: Vero, read-out: IC50, VAR isolate Heidelberg
VAR isolate V74-227 = test: organism not typed; format: cell-based, variola; details: Vero, read-out: IC50, VAR isolate V74-227
CPX = details: cited from earlier work
VAR isolate Minn124 = test: organism not typed; format: cell-based, variola minor; details: Vero, read-out: IC50, VAR isolate Minn124
VAR isolate 7124 = test: organism not typed; format: cell-based, variola; details: Vero, read-out: IC50, VAR isolate 7124
CPX Brighton [4] = test: organism not typed; format: cell-based, cowpox; details: for IC50: Vero
VAC = details: cited from earlier work
VAR isolate Hinden = test: organism not typed; format: cell-based, variola; details: Vero, read-out: IC50, VAR isolate Hinden
VAR isolate V70-222 = test: organism not typed; format: cell-based, variola; details: Vero, read-out: IC50, VAR isolate V70-222
all VAR isolates tested = test: organism not typed; format: cell-based, variola; details: Vero, read-out: IC50, VAR mean
VAR isolate Shahzaman = test: organism not typed; format: cell-based, variola; details: Vero, read-out: IC50, VAR isolate Shahzaman
LLC-MK2 cells = details: rhesus monkey
VAR isolate V73-175 = test: organism not typed; format: cell-based, variola; details: Vero, read-out: IC50, VAR isolate V73-175
[5] = tested on: MPX Zaire (V79-1-005-Scab); test: organism not typed; format: cell-based, monkeypox; details: for IC50: Vero
VAR isolate Rafig Lahore = test: organism not typed; format: cell-based, variola; details: Vero, read-out: IC50, VAR isolate Rafig Lahore
VAR isolate Higgins = test: organism not typed; format: cell-based, variola; details: Vero, read-out: IC50, VAR isolate Higgins
[6] = tested on: VAR-YAM (1946 Japan Yamada isolate of VAR major); test: organism not typed; format: cell-based, variola major; details: for IC50: Vero
VAR isolate V68-59 = test: organism not typed; format: cell-based, variola minor; details: Vero, read-out: IC50, VAR isolate V68-59
[7] = tested on: orthopoxviruses (VAR-BSH, VAR-YAM, VAR-GAR, MPX, CPX, VAC); test: organism not typed; format: cell-based
VAC Copenhagen [8] = test: microbe, parasite or virus in culture; format: cell-based, vaccinia virus; details: for IC50: Orthopoxvirus vaccinia, Vero, read-out: IC50 VAC Vero
Vero cells = details: African green monkey
VAR isolate K1629 = test: organism not typed; format: cell-based, variola; details: Vero, read-out: IC50, VAR isolate K1629
[9] = tested on: VAR-BSH (1975 Bangladesh isolate of VAR major); test: organism not typed; format: cell-based, variola major; details: for IC50: Vero
VAR isolate Horn = test: organism not typed; format: cell-based, variola; details: Vero, read-out: IC50, VAR isolate Horn
[10] = tested on: VAR-GAR (1966 Brazil Garcia isolate of VAR minor); test: organism not typed; format: cell-based, variola minor; details: for IC50: LLC-MK2, read-out: IC50 VAR-GAR LLC-MK2
[11] = tested on: VAR-BSH (1975 Bangladesh isolate of VAR major); test: organism not typed; format: cell-based, variola major; details: for IC50: LLC-MK2, read-out: IC50 VAR-BSH LLC-MK2
CPX Brighton [12] = test: organism not typed; format: cell-based, cowpox; details: for IC50: LLC-MK2, read-out: IC50 CPX LLC-MK2
VAR isolate Jee = test: organism not typed; format: cell-based, variola; details: Vero, read-out: IC50, VAR isolate Jee
VAR isolate Butler = test: organism not typed; format: cell-based, variola minor; details: Vero, read-out: IC50, VAR isolate Butler
VAR isolate Iran 2602 = test: organism not typed; format: cell-based, variola; details: Vero, read-out: IC50, VAR isolate Iran 2602
[13] = read-out: IC50, VAR isolate Yamada
[14] = read-out: IC50, VAR isolate Bangladesh

## Nc1ccn(C[C@@H](CO)OCP(=O)(O)O)c(=O)n1 [Cidofovir, 1-[(S)-3-hydroxy-2-(phosphonomethoxy)-propyl]cytosine]
VAC Copenhagen [1]
  Therapeutic index (TI) VAC LLC-MK2: 23.3
  IC50: 4.3 µg/mL (≈ 15.4 µM)
VAR isolate V72-119
  IC50: 10 µg/mL (≈ 35.8 µM)
[2]
  Therapeutic index (TI) VAR-YAM LLC-MK2: 37.0
  IC50: 2.7 µg/mL (≈ 9.67 µM)
VAR isolate V73-225
  IC50: 5 µg/mL (≈ 17.9 µM)
VAR isolate 102
  IC50: 23 µg/mL (≈ 82.4 µM)
VAR isolate 7125
  IC50: 12 µg/mL (≈ 43 µM)
VAR isolate Somalia
  IC50: 7 µg/mL (≈ 25.1 µM)
[3]
  Therapeutic index (TI) MPX LLC-MK2: 27.0
  IC50: 3.7 µg/mL (≈ 13.3 µM)
VAR isolate Heidelberg
  IC50: 15 µg/mL (≈ 53.7 µM)
VAR isolate V74-227
  IC50: 10 µg/mL (≈ 35.8 µM)
CPX
  activity in vivo, CPX mouse model: active in vivo
VAR isolate Minn124
  IC50: 5 µg/mL (≈ 17.9 µM)
VAR isolate 7124
  IC50: 20 µg/mL (≈ 71.6 µM)
CPX Brighton [4]
  Therapeutic index (TI) CPX Vero: 13.3
CPX Brighton [4]; read-out: IC50, CPX
  IC50: 13 µg/mL (≈ 46.6 µM)
CPX Brighton [4]; read-out: IC50 CPX Vero
  IC50: 7.5 µg/mL (≈ 26.9 µM)
VAC
  inhibition of VAC replication in vitro: inhibit VAC replication in vitro
VAR isolate Hinden
  IC50: 10 µg/mL (≈ 35.8 µM)
VAR isolate V70-222
  IC50: 12 µg/mL (≈ 43 µM)
All VAR isolates tested
  IC50: 12 ± 1 µg/mL (≈ 43 µM)
VAR isolate Shahzaman
  IC50: 11 µg/mL (≈ 39.4 µM)
LLC-MK2 cells
  Cytotoxicity TC50 LLC-MK2: >100 µg/mL
VAR isolate V73-175
  IC50: 12 µg/mL (≈ 43 µM)
[5]
  Therapeutic index (TI) MPX Vero: 14.9
[5]; read-out: IC50, MPX
  IC50: 11 µg/mL (≈ 39.4 µM)
[5]; read-out: IC50 MPX Vero
  IC50: 6.7 µg/mL (≈ 24 µM)
VAR isolate Rafig Lahore
  IC50: 12 µg/mL (≈ 43 µM)
VAR isolate Higgins
  IC50: 14 µg/mL (≈ 50.1 µM)
[6]
  Therapeutic index (TI) VAR-YAM Vero: 8.3
[6]; [13]
  IC50: 13 µg/mL (≈ 46.6 µM)
[6]; read-out: IC50 VAR-YAM Vero
  IC50: 12.1 µg/mL (≈ 43.3 µM)
VAR isolate V68-59
  IC50: 13 µg/mL (≈ 46.6 µM)
[7]
  TI against the panel of viruses: 18.2
[7]; read-out: mean IC50 against the panel of viruses
  IC50: 5.5 ± 0.95 µg/mL (≈ 19.7 µM)
VAC Copenhagen [8]
  Therapeutic index (TI) VAC Vero: 12.3
  IC50: 8.1 µg/mL (≈ 29 µM)
Vero cells
  Cytotoxicity TC50 Vero: >100 µg/mL
VAR isolate K1629
  IC50: 17 µg/mL (≈ 60.9 µM)
[9]
  Therapeutic index (TI) VAR-BSH Vero: 10.5
[9]; 120 h, read-out: apparent IC50
  IC50: 10.9 µg/mL (≈ 39 µM)
[9]; [14]
  IC50: 17 µg/mL (≈ 60.9 µM)
[9]; read-out: IC50 VAR-BSH Vero
  IC50: 9.5 µg/mL (≈ 34 µM)
VAR isolate Horn
  IC50: 11 µg/mL (≈ 39.4 µM)
[10]
  Therapeutic index (TI) VAR-GAR LLC-MK2: 40.0
  IC50: 2.5 µg/mL (≈ 8.95 µM)
[11]
  Therapeutic index (TI) VAR-BSH LLC-MK2: 31.3
  IC50: 3.2 µg/mL (≈ 11.5 µM)
CPX Brighton [12]
  Therapeutic index (TI) CPX LLC-MK2: 83.3
  IC50: 1.2 µg/mL (≈ 4.3 µM)
VAR isolate Jee
  IC50: 10 µg/mL (≈ 35.8 µM)
VAR isolate Butler
  IC50: 6 µg/mL (≈ 21.5 µM)
VAR isolate Iran 2602
  IC50: 8 µg/mL (≈ 28.7 µM)

## NC(=O)c1ncn([C@@H]2O[C@H](CO)[C@@H](O)[C@H]2O)n1 [Ribavirin]
VAC Copenhagen [1]
  Therapeutic index (TI) VAC LLC-MK2: 4.2
  IC50: 23.9 µg/mL (≈ 97.9 µM)
VAR isolate V72-119
  IC50: 35 µg/mL (≈ 143 µM)
[2]
  Therapeutic index (TI) VAR-YAM LLC-MK2: 29.4
  IC50: 3.4 µg/mL (≈ 13.9 µM)
VAR isolate V73-225
  IC50: 26 µg/mL (≈ 106 µM)
VAR isolate 102
  IC50: 110 µg/mL (≈ 450 µM)
VAR isolate 7125
  IC50: 37 µg/mL (≈ 152 µM)
VAR isolate Somalia
  IC50: 84 µg/mL (≈ 344 µM)
[3]
  Therapeutic index (TI) MPX LLC-MK2: 24.4
  IC50: 4.1 µg/mL (≈ 16.8 µM)
VAR isolate Heidelberg
  IC50: 43 µg/mL (≈ 176 µM)
VAR isolate V74-227
  IC50: 54 µg/mL (≈ 221 µM)
CPX; mouse, in vivo
  protection of CPX-infected mice: can protect CPX-infected mice
VAR isolate Minn124
  IC50: 32 µg/mL (≈ 131 µM)
VAR isolate 7124
  IC50: 36 µg/mL (≈ 147 µM)
CPX Brighton [4]
  Therapeutic index (TI) CPX Vero: 3.3
CPX Brighton [4]; read-out: IC50, CPX
  IC50: > 300 µg/mL
CPX Brighton [4]; read-out: IC50 CPX Vero
  IC50: 30.6 µg/mL (≈ 125 µM)
VAC
  inhibition of VAC replication in vitro: inhibited VAC replication in vitro
VAR isolate Hinden
  IC50: 33 µg/mL (≈ 135 µM)
VAR isolate V70-222
  IC50: 221 µg/mL (≈ 905 µM)
All VAR isolates tested
  IC50: 50 ± 8 µg/mL (≈ 205 µM)
VAR isolate Shahzaman
  IC50: 15 µg/mL (≈ 61.4 µM)
LLC-MK2 cells
  Cytotoxicity TC50 LLC-MK2: >100 µg/mL
VAR isolate V73-175
  IC50: 17 µg/mL (≈ 69.6 µM)
[5]
  Therapeutic index (TI) MPX Vero: 16.9
[5]; read-out: IC50, MPX
  IC50: 11 µg/mL (≈ 45 µM)
[5]; read-out: IC50 MPX Vero
  IC50: 5.9 µg/mL (≈ 24.2 µM)
VAR isolate Rafig Lahore
  IC50: 30 µg/mL (≈ 123 µM)
VAR isolate Higgins
  IC50: 48 µg/mL (≈ 197 µM)
[6]
  Therapeutic index (TI) VAR-YAM Vero: 6.3
[6]; [13]
  IC50: 40 µg/mL (≈ 164 µM)
[6]; read-out: IC50 VAR-YAM Vero
  IC50: 15.8 µg/mL (≈ 64.7 µM)
VAR isolate V68-59
  IC50: 41 µg/mL (≈ 168 µM)
[7]; LLC-MK2, read-out: mean IC50 on LLC-MK2 cells
  IC50: 8 ± 3.4 µg/mL (≈ 32.8 µM)
[7]; Vero, read-out: mean IC50 on Vero cells
  IC50: 31.3 ± 14.1 µg/mL (≈ 128 µM)
VAC Copenhagen [8]
  Therapeutic index (TI) VAC Vero: 1.0
  IC50: > 100 µg/mL
Vero cells
  Cytotoxicity TC50 Vero: >100 µg/mL
VAR isolate K1629
  IC50: 24 µg/mL (≈ 98.3 µM)
[9]
  Therapeutic index (TI) VAR-BSH Vero: 5.4
[9]; [14]
  IC50: 30 µg/mL (≈ 123 µM)
[9]; read-out: IC50 VAR-BSH Vero
  IC50: 18.4 µg/mL (≈ 75.3 µM)
VAR isolate Horn
  IC50: 28 µg/mL (≈ 115 µM)
[10]
  Therapeutic index (TI) VAR-GAR LLC-MK2: 27.8
  IC50: 3.6 µg/mL (≈ 14.7 µM)
[11]
  Therapeutic index (TI) VAR-BSH LLC-MK2: 47.6
  IC50: 2.1 µg/mL (≈ 8.6 µM)
CPX Brighton [12]
  Therapeutic index (TI) CPX LLC-MK2: 9.4
  IC50: 10.6 µg/mL (≈ 43.4 µM)
VAR isolate Jee
  IC50: 47 µg/mL (≈ 192 µM)
VAR isolate Butler
  IC50: 28 µg/mL (≈ 115 µM)
VAR isolate Iran 2602
  IC50: 11 µg/mL (≈ 45 µM)
